pIC50: −log10 of the molar value.
Columns and labels:
MDA-MB-231 = assay: Antiproliferative activity against human MDA-MB-231 cells after 48 hrs by MTT assay; type: functional, cell-based; conditions: for pIC50: Homo sapiens, MDA-MB-231, 48 h, read-out: IC50; for IC50: mda-mb-231
MCF7 = assay: Antiproliferative activity against human MCF7 cells after 48 hrs by MTT assay; type: functional, cell-based; conditions: for pIC50: Homo sapiens, MCF7, 48 h, read-out: IC50; for IC50: mcf7

For `Cc1cc(=O)oc2cc(-c3ccc(NS(C)(=O)=O)cc3)c3c(c12)OC(C)(C)C=C3`, the Activity (MDA-MB-231) was “Dose-dependent effect”, the pIC50 (MDA-MB-231) was 4.21 and the Activity (MCF7) was “Dose-dependent effect”. The pIC50 (MCF7) was 5.19.
For `CC1(C)C=Cc2c(-c3ccc(NC(=O)CCC(=O)O)cc3)cc3oc(=O)cc(-c4ccccc4)c3c2O1`, the IC50 (MDA-MB-231) was “Not Active” and the IC50 (MCF7) was “Not Active”.
In the case of `CC1(C)C=Cc2c(-c3cccc4c3Sc3ccccc3S4)cc3oc(=O)cc(-c4ccccc4)c3c2O1`, the Activity (MDA-MB-231) was “Dose-dependent effect”, the pIC50 (MDA-MB-231) was 4.47 and the Activity (MCF7) was “Dose-dependent effect”. For the same molecule, the pIC50 (MCF7) was 5.14.
For `CC1(C)C=Cc2c(I)cc3oc(=O)cc(-c4ccccc4)c3c2O1`, the IC50 (MDA-MB-231) was “Not Active” and the pIC50 (MCF7) was 4.27.
`CCCc1cc(=O)oc2cc(-c3ccc(NS(C)(=O)=O)cc3)c3c(c12)OC(C)(C)C=C3` was tested, and the Activity (MDA-MB-231) was “Dose-dependent effect”, the pIC50 (MDA-MB-231) was 4.57 and the Activity (MCF7) was “Dose-dependent effect”. The pIC50 (MCF7) was 5.48.
`Cc1cc(=O)oc2cc(-c3cc4ccccc4s3)c3c(c12)OC(C)(C)C=C3` gave a pIC50 (MDA-MB-231) of under 4.00 and a pIC50 (MCF7) of 4.60.
In the case of `CCCc1cc(=O)oc2cc(-c3cccc4c3Sc3ccccc3S4)cc(O)c12`, the Activity (MDA-MB-231) was “Dose-dependent effect”, the pIC50 (MDA-MB-231) was 5.10 and the Activity (MCF7) was “Dose-dependent effect”. It also gave a pIC50 (MCF7) of 4.84.
For `CCCc1cc(=O)oc2cc(I)c3c(c12)OC(C)(C)C=C3`, the IC50 (MDA-MB-231) was “Not Active” and the pIC50 (MCF7) was 4.86.
With `O=c1cc(-c2ccccc2)c2c(O)cc(-c3cc4ccccc4s3)cc2o1` the Activity (MDA-MB-231) was “Dose-dependent effect”, the pIC50 (MDA-MB-231) was 4.97 and the Activity (MCF7) was “Dose-dependent effect”. The pIC50 (MCF7) was 5.12.
For `CC1(C)C=Cc2c(-c3ccc(NS(C)(=O)=O)cc3)cc3oc(=O)cc(-c4ccccc4)c3c2O1`, the Activity (MDA-MB-231) was “Dose-dependent effect”, the pIC50 (MDA-MB-231) was 4.54 and the Activity (MCF7) was “Dose-dependent effect”. The pIC50 (MCF7) was 5.28.
With `CCCc1cc(=O)oc2cc(-c3cccc4c3Sc3ccccc3S4)c3c(c12)OC(C)(C)C=C3` the IC50 (MDA-MB-231) was “Not Active” and the pIC50 (MCF7) was under 4.00.
In the case of `CCCc1cc(=O)oc2cc(-c3ccc(NC(=O)CCC(=O)O)cc3)c3c(c12)OC(C)(C)C=C3`, the IC50 (MDA-MB-231) was “Not Active” and the IC50 (MCF7) was “Not Active”.
In the case of `CC1(C)C=Cc2c(-c3cc4ccccc4s3)cc3oc(=O)cc(-c4ccccc4)c3c2O1`, the IC50 (MDA-MB-231) was “Not Active” and the pIC50 (MCF7) was 4.11.
For `CCCc1cc(=O)oc2cc(I)cc(O)c12`, the IC50 (MDA-MB-231) was “Not Active” and the pIC50 (MCF7) was 4.57.
With `Cc1cc(=O)oc2cc(I)cc(O)c12` the IC50 (MDA-MB-231) was “Not Active” and the pIC50 (MCF7) was 4.74.
For `Cc1cc(=O)oc2cc(I)c3c(c12)OC(C)(C)C=C3`, the IC50 (MDA-MB-231) was “Not Active” and the pIC50 (MCF7) was 4.51.
`Cc1cc(=O)oc2cc(-c3ccc(NC(=O)CCC(=O)O)cc3)c3c(c12)OC(C)(C)C=C3` was tested, and the IC50 (MDA-MB-231) was “Not Active” and the IC50 (MCF7) was “Not Active”.
`CCCc1cc(=O)oc2cc(-c3cc4ccccc4s3)c3c(c12)OC(C)(C)C=C3` was tested, and the IC50 (MDA-MB-231) was “Not Active” and the pIC50 (MCF7) was 4.64.
`O=c1cc(-c2ccccc2)c2c(O)cc(-c3cccc4c3Sc3ccccc3S4)cc2o1` was tested, and the Activity (MDA-MB-231) was “Dose-dependent effect”, the pIC50 (MDA-MB-231) was 5.03 and the Activity (MCF7) was “Dose-dependent effect”. The pIC50 (MCF7) was 4.85.
For `O=c1cc(-c2ccccc2)c2c(O)cc(I)cc2o1`, the IC50 (MDA-MB-231) was “Not Active” and the pIC50 (MCF7) was 4.60.
In the case of `CCCc1cc(=O)oc2cc(-c3cc4ccccc4s3)cc(O)c12`, the pIC50 (MDA-MB-231) was 4.30 and the pIC50 (MCF7) was 4.65.

Reference: ChEMBL document CHEMBL1153483, “Synthesis and evaluation of novel substituted 5-hydroxycoumarin and pyranocoumarin derivatives exhibiting significant antiproliferative activity against breast cancer cell lines” (Bioorg Med Chem Lett, 2009)
